This is an account of results in patent US8008061B2, “Trophic conversion of obligate phototrophic algae through metabolic engineering” (Martek Biosciences Corporation, priority 2000, dated 2011).

Common to all, as to type: cell-based
The test system of assay [1] is Cylindrotheca fusiformis. The experiment in a line: Antibiotic sensitivity in diatoms, growth on solid media. Conditions: C. fusiformis; for lowest concentration of the antibiotic per ml required for cell death or the highest concentration tested: Table C, 100% I.O. media, 2 weeks of illumination; for lowest concentration of antibiotic per ml required for cell death or the lowest concentration tested: media with reduced salinity, 25% of normal seawater. How it is done: (§1) The diatoms Phaeodactylum tricornutum, Cylindrotheca fusiformis, Cyclotella cryptica and Nitzschia alba were extensively tested for sensitivity to a series of antibiotics for which resistance genes are available, and the lowest concentrations which completely abrogate growth were determined for each antibiotic (Table C). […] These include antibiotics such as G418, Hygromycin, Kanamycin and Spectinomycin, which are routinely utilized for selection of other eukaryotic organisms.
(§2) The effective concentration range of the antibiotic in most cases was lowered by a factor of 10.
(§3) Cells of each diatom species were plated on solid media at salinity equivalents of 25-100% I.O. media, with a gradient of antibiotic concentrations. After 2 weeks of illumination the growth of the cells was assessed and the concentration of antibiotic required for cell death was determined. (Table D).

The subject of assay [2] is Phaeodactylum tricornutum. The description is as above. Conditions: P. tricornutum; for lowest concentration of the antibiotic per ml required for cell death or the highest concentration tested: Table C, 100% I.O. media, 2 weeks of illumination. As for the experimental part: as §1, §2, §3
The test system of assay [3] is Cyclotella cryptica. The description is as above. The following applies: C. cryptica; for lowest concentration of the antibiotic per ml required for cell death or the highest concentration tested: Table C, 100% I.O. media, 2 weeks of illumination. How it is done:
as §1, §2
After 2 weeks of illumination the growth of the cells was assessed and the concentration of antibiotic required for cell death was determined. (Table D).

The subject of assay [4] is diatoms Phaeodactylum tricornutum, Cylindrotheca fusiformis, Cyclotella cryptica and Nitzschia alba. The experiment in a line: Antibiotic sensitivity, statements for the diatoms tested together. The following applies: for effect on growth of the diatoms: compared to effectiveness in other eukaryotic organisms; for cell death: 100% I.O. media, the diatoms tested. How it is done:
as §1, §2, §3

In assay [5] the test system is Nitzschia alba. The assay is described as follows: Antibiotic sensitivity in diatoms, growth on solid media. Set-up: unit not given here. The following applies: N. alba; Table C; 100% I.O. media; 2 weeks of illumination. How it is done:
as §1, §3

Regarding `COc1ccc(C[C@H](N)C(=O)N[C@H]2[C@@H](O)[C@H](n3cnc4c(N(C)C)ncnc43)O[C@@H]2CO)cc1` [Puromycin], the entries for the “lowest concentration of the antibiotic per ml required for cell death or the highest concentration tested” value in assay [1], in assay [2] and in assay [3] were 100 mg per ml, 200 mg per ml and 100 mg per ml, respectively.

`[H]/N=C(/N)N[C@H]1[C@H](O)[C@@H](O)[C@H](O[C@@H]2O[C@@H](C)[C@](O)(C=O)[C@H]2O[C@@H]2O[C@@H](CO)[C@H](O)[C@@H](O)[C@@H]2NC)[C@@H](N/C(N)=N\[H])[C@@H]1O` [Streptomycin]: the “lowest concentration of the antibiotic per ml required for cell death or the highest concentration tested” value in assay [1], in assay [2] and in assay [3] was above 1 mg per ml in each case.

Regarding `CN[C@@H]1[C@H](O)[C@H](NC)[C@H]2O[C@@]3(O)C(=O)C[C@@H](C)O[C@H]3O[C@@H]2[C@H]1O` [Spectinomycin], the “lowest concentration of the antibiotic per ml required for cell death or the highest concentration tested” value in assay [1] and in assay [3] was above 1 mg per ml throughout. In addition, the “effect on growth of the diatoms” value in assay [4] is recorded as “no significant effect on growth or were effective only at very high concentrations”.

Consider `O=C(N[C@H](CO)[C@H](O)c1ccc([N+](=O)[O-])cc1)C(Cl)Cl` [Chloramphenicol], for which the results for the “lowest concentration of the antibiotic per ml required for cell death or the highest concentration tested” value in assay [1], in assay [2] and in assay [3] were 100 mg per ml, 200 mg per ml and 50 mg per ml, respectively.

On to `Cc1c(N)nc([C@H](CC(N)=O)NC[C@H](N)C(N)=O)nc1C(=O)N[C@H](C(=O)N[C@H](C)[C@@H](O)[C@H](C)C(=O)N[C@H](C(=O)NCCC1=N[C@@H](c2nc(C(=O)NCCCCN=C(N)N)cs2)CS1)[C@@H](C)O)[C@@H](O[C@@H]1O[C@@H](CO)[C@@H](O)[C@H](O)[C@@H]1O[C@H]1O[C@H](CO)[C@@H](O)[C@H](OC(N)=O)[C@@H]1O)c1cnc[nH]1` [Zeocin], for which the figures for the “lowest concentration of the antibiotic per ml required for cell death or the highest concentration tested” value in assay [3] and in assay [5] were 250 mg per ml and above 250, respectively. In addition, the cell death entry in assay [4] is “resulted in cell death”.

Consider Phleomycin, for which the “lowest concentration of antibiotic per ml required for cell death or the lowest concentration tested” value in assay [1] is listed as <5 mg (25%) mg per ml; in assay [2] (media with reduced salinity, 25% of normal seawater), <5 mg (25%) mg per ml; in assay [3] (media with reduced salinity, 10% of normal seawater) it was <5 mg (10%) mg per ml. For the same compound, the “lowest concentration of the antibiotic per ml required for cell death or the highest concentration tested” value in assay [3] is on record as 25 mg per ml. Also, the cell death entry in assay [4] is on record as “resulted in cell death”.

As to `NC[C@H]1O[C@H](O[C@H]2[C@H](O)[C@@H](O[C@H]3O[C@H](CO)[C@@H](O)[C@H](N)[C@H]3O)[C@H](N)C[C@@H]2N)[C@H](O)[C@@H](O)[C@@H]1O` [Kanamycin], the “lowest concentration of the antibiotic per ml required for cell death or the highest concentration tested” value in assay [1], in assay [2] and in assay [3] was above 1 mg per ml in each case.

Take `CN[C@@H]1[C@@H](O)[C@@H](O[C@@H]2[C@@H](O)[C@H](O[C@H]3O[C@H]([C@@H](C)O)[C@@H](O)[C@H](O)[C@H]3N)[C@@H](N)C[C@H]2N)OC[C@]1(C)O` [G418]: the “lowest concentration of the antibiotic per ml required for cell death or the highest concentration tested” value in assay [1] was above 1 mg per ml. Moreover, the “effect on growth of the diatoms” value in assay [4] is on record as “no significant effect on growth or were effective only at very high concentrations”.

Bleomycin: in assay [1], the “lowest concentration of the antibiotic per ml required for cell death or the highest concentration tested” value is above 50 mg per ml.

Consider Gentamicin, for which the “lowest concentration of the antibiotic per ml required for cell death or the highest concentration tested” value in assay [1], in assay [2] and in assay [3] was above 1 mg per ml in each case.

On to `CC[C@H]1OC(=O)[C@H](C)[C@@H](O[C@H]2C[C@@](C)(OC)[C@@H](O)[C@H](C)O2)[C@H](C)[C@@H](O[C@@H]2O[C@H](C)C[C@H](N(C)C)[C@H]2O)[C@](C)(O)C[C@@H](C)C(=O)[C@H](C)[C@@H](O)[C@]1(C)O` [Erythromycin], for which the “lowest concentration of the antibiotic per ml required for cell death or the highest concentration tested” value in assay [1] amounted to 100 mg per ml; in assay [2], 100 mg per ml; in assay [3], 50 mg per ml.

Nourseothricin: the “lowest concentration of the antibiotic per ml required for cell death or the highest concentration tested” value in assay [1] is reported as above 250 mg per ml; in assay [3], above 250 mg per ml; in assay [5], above 250. For the same compound, the “lowest concentration of antibiotic per ml required for cell death or the lowest concentration tested” value in assay [1] was <10 mg (25%) mg per ml.

Turning to Neomycin, the “lowest concentration of the antibiotic per ml required for cell death or the highest concentration tested” value in assay [1] is above 1 mg per ml; in assay [3] it was above 1 mg per ml; in assay [5], above 1.
